In patent US20080312244A1, “Squaric Acid Derivatives as Protein Kinase Inhibitors” (priority 2005, published 2008):

molecular target: T1, CHK1 kinase (Homo sapiens, UniProt O14757); assay: Measurement of the CHK1 kinase activity (flashplate / filter binding method); assay type: biochemical; conditions: class symbols defined in table footnotes
T1 construct: glutathione S-transferase (GST); made in house; host or cells: Sf21 (S. frugiperda) insect cells, baculovirus expression vector
T1 sequence (O14757 1-476): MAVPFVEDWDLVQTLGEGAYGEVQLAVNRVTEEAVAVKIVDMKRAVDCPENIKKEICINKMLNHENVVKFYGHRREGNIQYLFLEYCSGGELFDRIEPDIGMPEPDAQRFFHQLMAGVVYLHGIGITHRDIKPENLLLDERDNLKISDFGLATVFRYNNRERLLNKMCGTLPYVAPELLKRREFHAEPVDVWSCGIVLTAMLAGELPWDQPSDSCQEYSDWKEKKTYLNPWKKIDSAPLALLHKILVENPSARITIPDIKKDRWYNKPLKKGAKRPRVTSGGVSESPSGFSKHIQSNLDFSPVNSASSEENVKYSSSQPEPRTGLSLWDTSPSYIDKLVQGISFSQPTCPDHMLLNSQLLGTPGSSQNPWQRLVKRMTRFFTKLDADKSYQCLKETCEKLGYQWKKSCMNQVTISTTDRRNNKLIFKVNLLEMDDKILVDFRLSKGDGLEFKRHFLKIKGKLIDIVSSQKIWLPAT
Procedure: CHK1 kinase is expressed for the purposes of protein production in insect cells (Sf21; S. frugiperda) and subsequent purification by affinity chromatography as fusion protein with glutathione S-transferase in a baculovirus expression vector. The cultivation, infection and digestion of the cells as well as the purification of the fusion protein by column chromatography are carried out in accordance with manufacturer-oriented generic working instructions.
The kinase activity is measured using various available measurement systems. In the scintillation proximity method (Sorg et al., J. of. Biomolecular Screening, 2002, 7, 11-19), the flashplate method or the filter binding test, the radioactive phosphorylation of a protein or peptide as substrate is measured using radioactively labelled ATP (γ^32P-ATP, (γ^33P-ATP). In the case of the presence of an inhibitory compound, a reduced radioactive signal, or none at all, can be detected. Furthermore, homogeneous time-resolved fluorescence resonance energy transfer (HTR-FRET) and fluorescence polarisation (FP) technologies are useful as assay methods (Sills et al., J. of Biomolecular Screening, 2002, 191-214).
The test plates used are 384-well streptavidin-coated Flashplates Plus® from Perkin Elmer (Cat. No. SMP410A001 PK). The assay plate is equilibrated with 75 μl of assay buffer per well 30 min before commencement of the experiment. The buffer is sucked out before commencement of the experiment, and the components of the kinase reaction described below are pipetted onto the plate.
CHK1 kinase, a biotinylated substrate peptide (for example CHKtide: […]), is incubated with radioactively labelled ATP in the presence and absence of test substances at […] and a total volume of 50 μl. The reaction is terminated using 25 μl of a 0.2 M EDTA solution. After incubation for 30 min at room temperature, the supernatants are filtered off with suction, and the wells are washed three times with 100 μl of 0.9% NaCl solution each time. The measurement of the bound radioactivity is carried out by means of a scintillation measuring instrument (Topcount NXT, Perkin-Elmer).
The full value used is the inhibitor-free kinase reaction. This should be approximately in the range 3000-4000 cpm. The pharmacological zero value used is staurosporin in a final concentration of 0.1 μM. The inhibitory values (IC50) are determined using the program RS1_MTS ( ).
Kinase reaction conditions per well:
0.15 μg of CHKtide ([…])
50 μl total volume (1-fold assay buffer reaction conditions)
5-20 mU of CHK1 kinase (diluted in 20 mM MOPS pH7.5, 1 mM EDTA, 0.1% β-mercaptoethanol, 0.01% Brij-35, 5% glycerol, 1 mg/ml of BSA) are incubated for 30 min at room temperature in the presence of 30-200 μM CHKtide in 25.5 μl in 1-fold reaction buffer (8 mM MOPS pH7, 0.2 mM EDTA, 10 mM magnesium acetate, 0.02 mM γ^33P-ATP [500-1000 cpm/pmol]). The reaction is stopped using 5 μl of 0.5 M ortho-phosphoric acid and filtered through P81 filter plates. After the filter plates have been washed a number of times, the bound radioactivity is determined in a scintillation counter.

Row | Structure (SMILES) | IC50 [µM]
1 | O=c1c(NCc2cccc(O)c2)c(Nc2ccc(O)c(-c3ccccn3)c2)c1=O [Compound A1, 3-(3-hydroxybenzylamino)-4-(4-hydroxy-3-pyridin-2-ylphenylamino)cyclobut-3-ene-1,2-dione] | < 0.1
2 | O=c1c(NCc2cccc(O)c2)c(Nc2ccc(O)c(-c3ccccc3)c2)c1=O [Compound A2, 3-(3-Hydroxybenzylamino)-4-(4-hydroxy-3-phenylphenylamino)cyclobut-3-ene-1,2-dione] | > 1
3 | C[C@@H](Nc1c(Nc2ccc(O)c(-c3ccccn3)c2)c(=O)c1=O)c1ccccc1 [Compound A3, 3-(4-Hydroxy-3-pyridin-2-ylphenylamino)-4-[(R)-1-phenylethylamino]cyclobut-3-ene-1,2-dione] | > 1
4 | COc1cccc([C@@H](C)Nc2c(Nc3ccc(O)c(-c4ccccn4)c3)c(=O)c2=O)c1 [Compound A4, 3-(4-Hydroxy-3-pyridin-2-ylphenylamino)-4-[(R)-1-(3-methoxyphenyl)ethylamino]cyclobut-3-ene-1,2-dione] | > 1
5 | C[C@@H](Nc1c(Nc2ccc(O)c(-c3ccccn3)c2)c(=O)c1=O)c1cccc(O)c1 [Compound A5, 3-(4-Hydroxy-3-pyridin-2-ylphenylamino)-4-[(R)-1-(3-hydroxyphenyl)ethylamino]cyclobut-3-ene-1,2-dione] | < 0.1
6 | C[C@@H](Nc1c(Nc2cccc(-c3ccccn3)c2)c(=O)c1=O)c1cccc(O)c1 [Compound A6, 3-(3-Pyridin-2-ylphenylamino)-4-[(R)-1-(3-hydroxyphenyl)ethylamino]cyclobut-3-ene-1,2-dione] | > 1
7 | C[C@H](Nc1c(Nc2ccc(O)c(-c3ccccn3)c2)c(=O)c1=O)c1cccc(O)c1 [Compound A10, 3-(4-Hydroxy-3-pyridin-2-ylphenylamino)-4-[(S)-1-(3-hydroxyphenyl)ethylamino]cyclobut-3-ene-1,2-dione] | > 1
8 | NS(=O)(=O)c1cccc(CNc2c(Nc3ccc(O)c(-c4ccccn4)c3)c(=O)c2=O)c1 [Compound A12, 3-(3-Aminosulfonylbenzylamino)-4-(4-hydroxy-3-pyridin-2-ylphenylamino)cyclobut-3-ene-1,2-dione] | < 1
9 | O=c1c(NCc2cccc(O)c2)c(Nc2ccc(O)c(-c3ccncc3)c2)c1=O [Compound A23, 3-(3-Hydroxybenzylamino)-4-(4-hydroxy-3-pyridin-4-ylphenylamino)cyclobut-3-ene-1,2-dione] | < 1
10 | COc1cccc([C@H](C)Nc2c(Nc3ccc(O)c(-c4ccccn4)c3)c(=O)c2=O)c1 [Compound A59, 3-(4-Hydroxy-3-pyridin-2-ylphenylamino)-4-[(S)-1-(3-methoxyphenyl)ethylamino]cyclobut-3-ene-1,2-dione] | > 1
11 | O=c1c(NCCc2cccc(O)c2)c(Nc2ccc(O)c(-c3ccccn3)c2)c1=O [Compound A60, 3-[2-(3-Hydroxyphenyl)ethylamino]-4-(4-hydroxy-3-pyridin-2-ylphenylamino)cyclobut-3-ene-1,2-dione] | < 1
12 | O=c1c(NCc2ccc(O)c(O)c2)c(Nc2ccc(O)c(-c3ccccn3)c2)c1=O [Compound A61, 3-(3,4-Dihydroxybenzylamino)-4-(4-hydroxy-3-pyridin-2-ylphenylamino)cyclobut-3-ene-1,2-dione] | < 0.1
13 | COc1cc(CNc2c(Nc3ccc(O)c(-c4ccccn4)c3)c(=O)c2=O)ccc1F [Compound A62, 3-(4-Fluoro-3-methoxybenzylamino)-4-(4-hydroxy-3-pyridin-2-ylphenylamino)cyclobut-3-ene-1,2-dione] | > 1
14 | O=c1c(NCc2cc(O)cc(O)c2)c(Nc2ccc(O)c(-c3ccccn3)c2)c1=O [Compound A63, 3-(3,5-Dihydroxybenzylamino)-4-(4-hydroxy-3-pyridin-2-ylphenylamino)cyclobut-3-ene-1,2-dione] | < 0.1
15 | CC(=O)Nc1cccc(CNc2c(Nc3ccc(O)c(-c4ccccn4)c3)c(=O)c2=O)c1 [Compound A64, 3-(3-Acetamidobenzylamino)-4-(4-hydroxy-3-pyridin-2-ylphenylamino)cyclobut-3-ene-1,2-dione] | < 1
16 | O=c1c(NCc2ccc(F)c(O)c2)c(Nc2ccc(O)c(-c3ccccn3)c2)c1=O [Compound A65, 3-(4-Fluoro-3-hydroxybenzylamino)-4-(4-hydroxy-3-pyridin-2-ylphenylamino)cyclobut-3-ene-1,2-dione] | < 1
17 | NC(=O)c1cccc(CNc2c(Nc3ccc(O)c(-c4ccccn4)c3)c(=O)c2=O)c1 [Compound A66, 3-(3-Aminocarbonylbenzylamino)-4-(4-hydroxy-3-pyridin-2-ylphenylamino)cyclobut-3-ene-1,2-dione] | < 1
18 | CNS(=O)(=O)c1cccc(CNc2c(Nc3ccc(O)c(-c4ccccn4)c3)c(=O)c2=O)c1 [Compound A67, 3-(3-Methylaminosulfonylbenzylamino)-4-(4-hydroxy-3-pyridin-2-ylphenylamino)cyclobut-3-ene-1,2-dione] | < 1
19 | CN(Cc1cccc(O)c1)c1c(Nc2ccc(O)c(-c3ccccn3)c2)c(=O)c1=O [Compound A68, 3-[(3-Hydroxybenzyl)methylamino]-4-(4-hydroxy-3-pyridin-2-ylphenylamino)cyclobut-3-ene-1,2-dione] | < 1
20 | COc1ccc(Nc2c(NCc3cccc(O)c3)c(=O)c2=O)cc1-n1ccnc1 [Compound A72, 3-(3-Hydroxybenzylamino)-4-(3-imidazol-1-yl-4-methoxyphenylamino)cyclobut-3-ene-1,2-dione] | > 1
21 | O=c1c(NCc2cccc(O)c2)c(Nc2ccc(O)c(-n3cccc3)c2)c1=O [Compound A73, 3-(3-Hydroxybenzylamino)-4-(4-hydroxy-3-pyrrol-1-ylphenylamino)cyclobut-3-ene-1,2-dione] | > 1
22 | O=c1c(NCc2cccc(O)c2)c(Nc2ccc(O)c(-n3ccnc3)c2)c1=O [Compound A74, 3-(3-Hydroxybenzylamino)-4-(3-imidazol-1-yl-4-hydroxyphenylamino)cyclobut-3-ene-1,2-dione] | > 1
23 | O=c1c(NCc2cccc(O)c2)c(Nc2ccc(O)c(-n3cccn3)c2)c1=O [Compound A75, 3-(3-Hydroxybenzylamino)-4-(4-hydroxy-3-pyrazol-1-ylphenylamino)cyclobut-3-ene-1,2-dione] | < 1
24 | COc1cccc([C@@H](C)Nc2c(Nc3ccc(O)c(-n4cccn4)c3)c(=O)c2=O)c1 [Compound A76, 3-(4-Hydroxy-3-pyrazol-1-ylphenylamino)-4-[(R)-1-(3-methoxyphenyl)ethylamino]cyclobut-3-ene-1,2-dione] | < 1

test system: not given; assay: not given; conditions: not given

Row | Structure (SMILES) | melting point [°C]
25 | O=c1c(NCc2cccc(O)c2)c(Nc2ccc(O)c(-c3ccccn3)c2)c1=O [Compound A1, 3-(3-hydroxybenzylamino)-4-(4-hydroxy-3-pyridin-2-ylphenylamino)cyclobut-3-ene-1,2-dione] | 271 to 272
